Laboratory results published in patent US11591341B2 (ALIGOS THERAPEUTICS, INC., priority 2019, dated 2023).

Tested on: HBV
Assay: HBV-DNA Antiviral Assay Using HepG2.2.15 Cells (extracellular HBV DNA by qPCR)
Type: cell-based
Details: Hepatitis B virus, 168 h; HBV DNA inhibition, HepG2.2.15 cells, extracellular HBV DNA by qPCR on day 7; read-out: EC50
Procedure: The following assay procedure describes the HBV antiviral assay. This assay uses HepG2.2.15 cells, which have been transfected with HBV genome, and extracellular HBV DNA quantification as endpoint. Cell viability is assessed in parallel by measuring the intracellular ATP content using the CellTiter-Glo© reagent from Promega.
On day 0, HepG2.2.15 cells were seeded in 96-well plates at a density of 6.0×10^4 cells/well (0.1 mL/well). The cells were incubated at 37° C. and 5% CO2.
On day 1, the test articles were diluted and added to cell culture wells (8 concentrations, 4-fold dilution, in duplicate). GLS4, Tenofovir and Sorafenib were used as reference compounds. 100 μL of culture medium containing the compounds was added to the plate, and the final total volume per well was 200 μL. The final concentration of DMSO in the culture medium was 0.5%. The plate map of compound treatment is shown below. The cells were cultured at 37° C. and 5% CO2 for 3 days.
On day 4, the plates were refreshed with culture media with compounds.
On day 7, cell viability was assessed using the CellTiter-Glo, and the cell culture supernatants were collected for determination of HBV DNA by qPCR.
Extracellular DNA was isolated with QIAamp 96 DNA Blood Kit per the manufacturer's manual. HBV DNA was then quantified by qPCR with HBV specific primers and probes as specified in Table 1 using the FastStart Universal MasterMix from Roche on an ABI-7900HT. The PCR cycle program consisted of 95° C. for 10 min, followed by 40 cycles at 95° C. for 15 sec and 60° C. for 1 min.
A DNA standard was prepared by dilution of the pAAV2 HBV1.3 plasmid with concentrations ranging from 10 to 1×10^7 copies/μL and used to generate a standard curve by plotting Ct value vs. the concentration of the HBV plasmid DNA standard. The quantity of HBV DNA in each sample was determined by interpolating from the standard curve.
Cell viability was calculated as follows: % Cell viability=(luminescence value of test sample−average luminescence value of blank)/(average luminescence value of 0.5% DMSO control−average luminescence of blank)×100%. HBV DNA inhibition was calculated as follows: 100-(HBV DNA copy number of test sample−HBV DNA copy number of ETV)/HBV DNA copy number of 0.5% DMSO control−HBV DNA copy number of ETV)×100%. The CC50, EC50 and EC90 values were determined by dose-response curves fitted by GraphPad Prism using “log (agonist) vs. response—Variable slope”.

Structure (SMILES)	EC50
O=C(Nc1ccc(F)c(Cl)c1)N1CCn2c(c3n(c2=O)CCN(Cc2ccccc2)C3=O)C1 [Example 16, 12-benzyl-N-(3-chloro-4-fluoro-phenyl)-8,13-dioxo-4,7,9,12-tetrazatricyclo[7.4.0.0^2,7]tridec-1-ene-4-carboxamide]	500 to 5000 nM
COc1ccc(CN2CCn3c(c4n(c3=O)CCN(C(=O)Nc3ccc(F)c(Cl)c3)C4)C2=O)cc1 [Example 17, N-(3-chloro-4-fluoro-phenyl)-12-[(4-methoxyphenyl)methyl]-8,13-dioxo-4,7,9,12-tetrazatricyclo[7.4.0.0^2,7]tridec-1-ene-4-carboxamide]	> 5000 nM
COc1ccc(CN2CCn3c(c4n(c3=O)CCN(C(=O)c3ccc(Br)c(F)c3)C4)C2=O)cc1 [Example 18, 12-(4-bromo-3-fluoro-benzoyl)-4-[(4-methoxyphenyl)methyl]-4,7,9,12-tetrazatricyclo[7.4.0.0^2,7]tridec-1-ene-3,8-dione]	> 5000 nM
COc1ccc(CN2CCn3c(c4n(c3=O)CCN(C(=O)c3ccc(Br)c(Cl)c3)C4)C2=O)cc1 [Example 19, 12-(4-bromo-3-chloro-benzoyl)-4-[(4-methoxyphenyl)methyl]-4,7,9,12-tetrazatricyclo[7.4.0.0^2,7]tridec-1-ene-3,8-dione]	> 5000 nM
COc1ccc(CN2CCn3c(c4n(c3=O)CCN(C(=O)c3ccc(Br)cc3)C4)C2=O)cc1 [Example 20, 12-(4-bromobenzoyl)-4-[(4-methoxyphenyl)methyl]-4,7,9,12-tetrazatricyclo[7.4.0.0^2,7]tridec-1-ene-3,8-dione]	> 5000 nM
O=C(NCc1ccccc1-c1nccnn1)c1c2n(c(=O)n1-c1ccc(OC3CC3)cc1)CCN(C(=O)c1ccc(Br)c(Cl)c1)C2 [Example 463, 7-(4-bromo-3-chloro-benzoyl)-2-[4-(cyclopropoxy)phenyl]-3-oxo-N-[[2-(1,2,4-triazin-3-yl)phenyl]methyl]-6,8-dihydro-5H-imidazo[1,5-a]pyrazine-1-carboxamide]	100 to 500 nM
Cc1cccnc1-c1ccccc1CNC(=O)c1c2n(c(=O)n1-c1ccc(OC3CC3)cc1)CCN(C(=O)c1ccc(Br)c(Cl)c1)C2 [Example 464, 7-(4-bromo-3-chloro-benzoyl)-2-[4-(cyclopropoxy)phenyl]-N-[[2-(3-methyl-2-pyridyl)phenyl]methyl]-3-oxo-6,8-dihydro-5H-imidazo[1,5-a]pyrazine-1-carboxamide]	500 to 5000 nM
O=C(NCc1ccccc1-c1ncccc1F)c1c2n(c(=O)n1-c1ccc(OC3CC3)cc1)CCN(C(=O)c1ccc(Br)c(Cl)c1)C2 [Example 465, 7-(4-bromo-3-chloro-benzoyl)-2-[4-(cyclopropoxy)phenyl]-N-[[2-(3-fluoro-2-pyridyl)phenyl)methyl]-3-oxo-6,8-dihydro-5H-imidazo[1,5-a]pyrazine-1-carboxamide]	100 to 500 nM
